{
  "source": "patent US8936728B2",
  "about": "“Chemicals for oil spill cleanup” (priority 2010, dated 2015)",
  "system": "fresh water minnows",
  "test": "Toxicity tests using fresh water minnows",
  "type": "in vivo",
  "conditions": "test water containing 25 ppm; control water without the phosphonium bromide",
  "description": "Toxicity tests were conducted using fresh water minnows. The fresh water minnows were placed in test water containing 25 ppm dodecylbenzyldimethyl phosphonium bromide and in a control water sample without the phosphonium bromide.",
  "data": [
    {"molecule": "CCCCCCCCCCCC[P+](C)(C)Cc1ccccc1.[Br-]", "note": "[dodecylbenzyldimethyl phosphonium bromide]", "values": [
      {"measurement": "number of fresh water minnows dying over a given time in the test water versus control", "result": "about the same as in the control"}
    ]}
  ]
}
